Laboratory results from ChEMBL document CHEMBL1201862, “PubChem BioAssay data set” (2004).
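Grown in 96-well plates, cells were treated for 48 hours with each compound at five concentrations. Insufficient inhibition: endpoint recorded as highest concentration tested. GI50 marks 50% less growth.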 The source made the active and inactive calls. Rule as the data show it: active = GI50 up to about 1.1 µM and inactive = higher.

What was measured:
Assay in all cases: growth of human tumour cells (NCI), 48 h
COLO 205 = test system: COLO 205
EKVX = test system: EKVX
HOP-92 = test system: HOP-92
Hs-578T = test system: Hs-578T
MDA-MB-231 = test system: MDA-MB-231
Malme-3M = test system: Malme-3M
NCI-H226 = test system: NCI-H226
NCI-H522 = test system: NCI-H522
OVCAR-3 = test system: OVCAR-3
OVCAR-4 = test system: OVCAR-4
OVCAR-5 = test system: OVCAR-5
SF-295 = test system: SF-295
SK-MEL-28 = test system: SK-MEL-28
SK-MEL-2 = test system: SK-MEL-2
SK-OV-3 = test system: SK-OV-3
SNB-75 = test system: SNB-75
T47D = test system: T47D
TK-10 = test system: TK-10
UACC-257 = test system: UACC-257
786-0 = test system: 786-0
A549 = test system: A549
ACHN = test system: ACHN
CAKI-1 = test system: CAKI-1
CCRF-CEM = test system: CCRF-CEM
DU-145 = test system: DU-145
HCC 2998 = test system: HCC 2998
HCT-116 = test system: HCT-116
HCT-15 = test system: HCT-15
HL-60 = test system: HL-60
HOP-62 = test system: HOP-62
HT-29 = test system: HT-29
IGROV-1 = test system: IGROV-1
K562 = test system: K562
KM12 = test system: KM12
LOX IMVI = test system: LOX IMVI
M14 = test system: M14
MCF7 = test system: MCF7
MDA-MB-435 = test system: MDA-MB-435
MDA-N = test system: MDA-N
MOLT-4 = test system: MOLT-4
NCI-H23 = test system: NCI-H23
NCI-H460 = test system: NCI-H460
NCI/ADR-RES = test system: NCI/ADR-RES
OVCAR-8 = test system: OVCAR-8
PC-3 = test system: PC-3
RPMI-8226 = test system: RPMI-8226
RXF 393 = test system: RXF 393
SF-268 = test system: SF-268
SF-539 = test system: SF-539
SK-MEL-5 = test system: SK-MEL-5
SN12C = test system: SN12C
SNB-19 = test system: SNB-19
SR = test system: SR
SW-620 = test system: SW-620
U-251 = test system: U-251
UACC-62 = test system: UACC-62
UO-31 = test system: UO-31
A498 = test system: A498

Measured: GI50

COc1cc(/C=C/C(=O)c2ccc(O)c(OC)c2)ccc1O
inactive: COLO 205 20.1 µM | EKVX 12.3 µM | HOP-92 27.2 µM | Hs-578T 17.5 µM | MDA-MB-231 29.1 µM | Malme-3M 22.3 µM | NCI-H226 24.5 µM | NCI-H522 14.5 µM | OVCAR-3 18.7 µM | OVCAR-4 24.3 µM | OVCAR-5 24.8 µM | SF-295 20.6 µM | SK-MEL-28 17.6 µM | SK-MEL-2 20.3 µM | SK-OV-3 13.4 µM | SNB-75 24.8 µM | T47D 22.9 µM | TK-10 46.8 µM | UACC-257 22.5 µM

CC(C)(C)[Si](C)(C)OCC1CCC(n2cnc3c(=O)[nH]cnc32)O1 (stereo unspecified)
> 100 µM: HCT-15
inactive: 786-0 > 100 µM | A549 > 100 µM | ACHN > 100 µM | CAKI-1 > 100 µM | CCRF-CEM 68.5 µM | COLO 205 > 100 µM | DU-145 > 100 µM | EKVX > 100 µM | HCC 2998 > 100 µM | HCT-116 > 100 µM | HL-60 74.8 µM | HOP-62 > 100 µM | HOP-92 > 100 µM | HT-29 > 100 µM | Hs-578T 58.2 µM | IGROV-1 > 100 µM | K562 85.7 µM | KM12 > 100 µM | LOX IMVI > 100 µM | M14 > 100 µM | MCF7 > 100 µM | MDA-MB-231 > 100 µM | MDA-MB-435 > 100 µM | MDA-N > 100 µM | MOLT-4 30.2 µM | Malme-3M 78.9 µM | NCI-H226 77.6 µM | NCI-H23 > 100 µM | NCI-H460 > 100 µM | NCI-H522 > 100 µM | NCI/ADR-RES 45.6 µM | OVCAR-3 > 100 µM | OVCAR-4 > 100 µM | OVCAR-5 > 100 µM | OVCAR-8 94.4 µM | PC-3 > 100 µM | RPMI-8226 65.5 µM | RXF 393 > 100 µM | SF-268 > 100 µM | SF-295 > 100 µM | SF-539 > 100 µM | SK-MEL-28 > 100 µM | SK-MEL-2 > 100 µM | SK-MEL-5 32.5 µM | SK-OV-3 > 100 µM | SN12C > 100 µM | SNB-19 > 100 µM | SNB-75 20.3 µM | SR 35.3 µM | SW-620 > 100 µM | T47D 82.8 µM | TK-10 > 100 µM | U-251 > 100 µM | UACC-257 > 100 µM | UACC-62 35.7 µM | UO-31 > 100 µM

COC(=O)c1ccccc1/C=C1/Cc2ccccc2C1=O
23.4 µM: HCT-15
inactive: 786-0 > 10 µM | A498 > 100 µM | A549 50.7 µM | ACHN 39.2 µM | CAKI-1 25.8 µM | CCRF-CEM 31.3 µM | COLO 205 30 µM | DU-145 > 100 µM | EKVX 63.2 µM | HCC 2998 > 100 µM | HCT-116 24.4 µM | HL-60 30.1 µM | HOP-62 98.4 µM | HOP-92 61.1 µM | HT-29 37.9 µM | Hs-578T 30.9 µM | IGROV-1 27.3 µM | K562 32.7 µM | KM12 25.2 µM | LOX IMVI 17.8 µM | MCF7 11.5 µM | MDA-MB-231 44.7 µM | MDA-MB-435 > 100 µM | MDA-N 55.8 µM | MOLT-4 24.4 µM | Malme-3M 50.5 µM | NCI-H226 63.8 µM | NCI-H23 68.4 µM | NCI-H460 > 100 µM | NCI-H522 31.7 µM | NCI/ADR-RES 36.5 µM | OVCAR-3 23.8 µM | OVCAR-4 34.4 µM | OVCAR-5 33.3 µM | OVCAR-8 47.1 µM | PC-3 48.2 µM | RPMI-8226 22 µM | RXF 393 54.6 µM | SF-268 > 100 µM | SF-295 44.1 µM | SF-539 > 100 µM | SK-MEL-28 65.5 µM | SK-MEL-5 18.6 µM | SK-OV-3 > 100 µM | SN12C 17.4 µM | SNB-75 > 100 µM | SR 22.2 µM | SW-620 28.3 µM | T47D 19.6 µM | TK-10 > 100 µM | U-251 29.7 µM | UACC-257 24 µM | UACC-62 36.1 µM | UO-31 50.6 µM
